Here are results for 28 compounds from US10457655B2, “Compounds and compositions for inhibition of FASN” (FORMA Therapeutics, Inc., priority 2013, dated 2019).

Where only a bound is given, the exact number is not on record here.

One may read the IC50 as the concentration at which inhibition is half-maximal. A higher IC50 goes with a need for much substance.

FASN enzyme, sequence (P49327 whole entry): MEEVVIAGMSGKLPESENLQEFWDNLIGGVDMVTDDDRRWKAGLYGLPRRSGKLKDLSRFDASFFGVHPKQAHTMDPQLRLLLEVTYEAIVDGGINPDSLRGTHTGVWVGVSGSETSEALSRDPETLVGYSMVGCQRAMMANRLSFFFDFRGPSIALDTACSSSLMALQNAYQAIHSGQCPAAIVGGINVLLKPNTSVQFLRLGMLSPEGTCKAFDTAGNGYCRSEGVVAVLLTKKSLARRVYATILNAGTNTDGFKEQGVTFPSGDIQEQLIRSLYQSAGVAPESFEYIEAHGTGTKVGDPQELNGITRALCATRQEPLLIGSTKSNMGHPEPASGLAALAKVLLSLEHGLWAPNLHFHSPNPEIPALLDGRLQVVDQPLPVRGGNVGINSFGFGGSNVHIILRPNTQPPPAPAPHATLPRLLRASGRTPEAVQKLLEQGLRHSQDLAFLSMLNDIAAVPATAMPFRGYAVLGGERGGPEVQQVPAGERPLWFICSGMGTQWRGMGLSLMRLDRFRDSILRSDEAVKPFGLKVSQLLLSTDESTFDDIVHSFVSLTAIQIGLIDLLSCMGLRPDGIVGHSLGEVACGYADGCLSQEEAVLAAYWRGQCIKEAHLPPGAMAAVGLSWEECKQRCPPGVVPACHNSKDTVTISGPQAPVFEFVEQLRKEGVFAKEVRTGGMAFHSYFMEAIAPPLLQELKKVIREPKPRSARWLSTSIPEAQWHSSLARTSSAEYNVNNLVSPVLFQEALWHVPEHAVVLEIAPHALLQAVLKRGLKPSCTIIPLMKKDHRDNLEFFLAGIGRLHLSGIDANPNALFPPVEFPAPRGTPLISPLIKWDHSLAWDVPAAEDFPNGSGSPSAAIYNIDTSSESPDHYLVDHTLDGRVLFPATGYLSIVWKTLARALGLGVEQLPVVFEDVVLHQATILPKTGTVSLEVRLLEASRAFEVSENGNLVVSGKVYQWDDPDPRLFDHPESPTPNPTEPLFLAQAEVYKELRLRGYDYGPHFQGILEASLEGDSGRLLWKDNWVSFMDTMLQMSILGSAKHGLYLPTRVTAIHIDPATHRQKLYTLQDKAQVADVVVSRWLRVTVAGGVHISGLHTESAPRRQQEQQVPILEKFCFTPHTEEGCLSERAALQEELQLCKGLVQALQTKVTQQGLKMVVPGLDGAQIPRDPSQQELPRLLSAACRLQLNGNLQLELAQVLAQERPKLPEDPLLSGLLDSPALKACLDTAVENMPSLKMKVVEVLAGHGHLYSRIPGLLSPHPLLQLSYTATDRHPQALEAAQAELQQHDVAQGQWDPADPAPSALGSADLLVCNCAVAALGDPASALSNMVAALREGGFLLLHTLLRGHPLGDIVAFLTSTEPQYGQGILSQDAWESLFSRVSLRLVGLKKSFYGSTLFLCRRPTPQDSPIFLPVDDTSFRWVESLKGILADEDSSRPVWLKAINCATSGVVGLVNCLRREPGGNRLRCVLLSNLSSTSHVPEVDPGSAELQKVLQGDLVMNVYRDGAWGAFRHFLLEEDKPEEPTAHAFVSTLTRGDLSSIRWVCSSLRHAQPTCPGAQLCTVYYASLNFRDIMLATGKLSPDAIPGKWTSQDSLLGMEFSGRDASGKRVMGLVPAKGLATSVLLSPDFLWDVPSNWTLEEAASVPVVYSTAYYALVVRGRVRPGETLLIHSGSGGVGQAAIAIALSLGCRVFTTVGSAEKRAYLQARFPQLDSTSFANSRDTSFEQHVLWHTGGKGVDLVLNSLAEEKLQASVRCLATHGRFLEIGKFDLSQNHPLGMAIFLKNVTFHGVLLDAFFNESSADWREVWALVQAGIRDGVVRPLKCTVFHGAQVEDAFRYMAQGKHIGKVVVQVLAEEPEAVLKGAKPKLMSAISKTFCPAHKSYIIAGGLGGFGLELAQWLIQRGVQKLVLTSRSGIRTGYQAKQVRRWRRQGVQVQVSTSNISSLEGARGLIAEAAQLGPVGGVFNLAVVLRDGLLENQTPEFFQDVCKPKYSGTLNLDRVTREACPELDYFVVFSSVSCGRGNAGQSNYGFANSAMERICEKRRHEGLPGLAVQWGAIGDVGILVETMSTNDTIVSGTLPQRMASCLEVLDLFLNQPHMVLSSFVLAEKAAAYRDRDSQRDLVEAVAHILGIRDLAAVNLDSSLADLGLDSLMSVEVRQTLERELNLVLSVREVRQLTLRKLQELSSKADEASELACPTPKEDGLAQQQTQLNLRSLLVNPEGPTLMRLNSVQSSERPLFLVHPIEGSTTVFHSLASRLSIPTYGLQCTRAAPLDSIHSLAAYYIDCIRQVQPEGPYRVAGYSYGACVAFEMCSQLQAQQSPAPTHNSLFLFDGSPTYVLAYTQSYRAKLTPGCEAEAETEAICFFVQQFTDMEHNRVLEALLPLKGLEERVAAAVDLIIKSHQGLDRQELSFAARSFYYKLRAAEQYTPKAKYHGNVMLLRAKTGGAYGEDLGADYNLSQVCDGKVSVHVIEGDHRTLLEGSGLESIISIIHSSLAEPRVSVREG

One assay addresses FASN enzyme (Homo sapiens, UniProt P49327). Nature of the assay: Enzymatic Assay for FASN Inhibitors. The format is biochemical.
Conditions: not given
Summed up:
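40 nM FASN preincubated with compound 60 min at 25° C in HEPES pH 7.3 buffer with 0.04% Triton X-100. Then 20 μM acetyl-CoA, 60 μM malonyl-CoA and 100 μM NADPH added for 90 min, quenched with CPM thiol probe; fluorescence 360/530 nm, IC50 by four-parameter fit.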
`Cn1cnc2cc(-c3ccc(C(=O)N4CCN(C(=O)C5(O)CC5)CC45CC5)cc3)ccc21` [1-{4-[4-(1-methyl-1H-1,3-benzodiazol-5-yl)benzoyl]-4,7-diazaspiro[2.5]octane-7-carbonyl}cyclopropan-1-ol] gave an IC50 of under 500 nM. Still for that read-out and setting: then `C[C@@H]1CN(C(=O)c2ccc(-c3ccc4c(c3)ncn4C)cc2)CCN1C(=O)C1(O)CC1` [1-[(2R)-2-methyl-4-[4-(1-methyl-1H-1,3-benzodiazol-5-yl)benzoyl]piperazine-1-carbonyl]cyclopropan-1-ol], with under 500 nM; and `C[C@@H]1CN(C(=O)C2(O)CC2)CCN1C(=O)c1ccc(-c2nc3ccc(F)cc3o2)cc1` [1-[(3R)-4-[4-(6-fluoro-1,3-benzoxazol-2-yl)benzoyl]-3-methylpiperazine-1-carbonyl]cyclopropan-1-ol], with under 500 nM; and `O=C(c1ccc(-c2cccc(Cl)c2)cc1)N1CCN(C(=O)C2(O)CC2)CC1` [1-[(4-{[4-(3-chlorophenyl)phenyl]carbonyl}piperazin-1-yl)carbonyl]cyclopropan-1-ol], with under 500 nM. Same read-out and setting: then `C[C@H]1CN(C(=O)c2ccc(-c3cccc(S(=O)(=O)C4CC4)c3)cc2)CCN1C(=O)C1(O)CC1` [1-[(2S)-4-{4-[3-(cyclopropanesulfonyl)phenyl]benzoyl}-2-methylpiperazine-1-carbonyl]cyclopropan-1-ol], with under 500 nM; and `CNC(=O)c1cccc(-c2ccc(C(=O)N3CCN(C(=O)C4(O)CC4)CC3)cc2)c1` [3-{4-[4-(1-hydroxycyclopropanecarbonyl)piperazine-1-carbonyl]phenyl}-N-methylbenzamide], with under 500 nM; and `O=C(c1ccc(N2CCc3ccccc3C2)cc1)N1CCN(C(=O)C2(O)CC2)CC1` [1-{4-[4-(1,2,3,4-tetrahydroisoquinolin-2-yl)benzoyl]piperazine-1-carbonyl}cyclopropan-1-ol], with under 500 nM. Still for that read-out and setting: under `N#CC1(c2cccc(-c3ccc(C(=O)N4CCN(C(=O)C5(N)CC5)CC4)cc3)c2)CC1` [1-(3-{4-[4-(1-aminocyclopropanecarbonyl)piperazine-1-carbonyl]phenyl}phenyl)cyclopropane-1-carbonitrile] stands under 500 nM. The compound `Nc1nc(-c2cccc(-c3ccc(C(=O)N4CCN(C(=O)C5(O)CC5)CC4)cc3)c2)n[nH]1` [1-(4-{4-[3-(5-amino-1H-1,2,4-triazol-3-yl)phenyl]benzoyl}piperazine-1-carbonyl)cyclopropan-1-ol] registered an IC50 of under 500 nM. On the same count and under the same terms, then `O=C(c1ccc(-c2cccc(NS(=O)(=O)CC3CC3)c2)cc1)N1CCN(C(=O)C2(O)CC2)CC1` [1-cyclopropyl-N-(3-{4-[4-(1-hydroxycyclopropanecarbonyl)piperazine-1-carbonyl]phenyl}phenyl)methanesulfonamide], with under 500 nM; and `O=C(c1ccc(-c2ccc3nn(C4CC4)cc3c2)cc1)N1CCN(C(=O)C2(O)CC2)CC1` [1-{4-[4-(2-cyclopropyl-2H-indazol-5-yl)benzoyl]piperazine-1-carbonyl}cyclopropan-1-ol], with under 500 nM; and `Cn1nc2ccc(-c3ccc(C(=O)N4CCN(C(=O)C5(O)CC5)CC4)cc3)cc2n1`, with under 500 nM. On the same count and under the same terms, under `O=C(c1ccc(-c2nc3ccc(F)cc3o2)cc1F)N1CCN(C(=O)C2(O)CC2)CC1` [1-{4-[2-fluoro-4-(6-fluoro-1,3-benzoxazol-2-yl)benzoyl]piperazine-1-carbonyl}cyclopropan-1-ol] stands under 500 nM; under `Cn1cnc2cc(-c3cc(F)c(C(=O)N4CCN(C(=O)C5(O)CC5)CC4)c(F)c3)ccc21` [1-{4-[2,6-difluoro-4-(1-methyl-1H-1,3-benzodiazol-5-yl)benzoyl]piperazine-1-carbonyl}cyclopropan-1-ol], under 500 nM. On to `O=C(c1ccc(N2CCc3ccc(F)cc3C2)cc1)N1CCN(C(=O)C2(O)CC2)CC1`, for which the concentration for half-maximal inhibition (IC50) is under 500 nM.

As for `Cc1nn(C)c2ccc(-c3ccc(C(=O)N4CCN(C(=O)C5(N)CC5)CC4)c(F)c3)cc12` [1-{4-[4-(1,3-dimethyl-1H-indazol-5-yl)-2-fluorobenzoyl]piperazine-1-carbonyl}cyclopropan-1-amine], the half-maximal inhibitory concentration (IC50) is under 500 nM. On the same count and under the same terms, under `O=C(c1ccc(-c2ccc(Cl)cc2F)cc1)N1CCN(C(=O)C2(O)CC2)CC12CC2` [1-{4-[4-(4-chloro-2-fluorophenyl)benzoyl]-4,7-diazaspiro[2.5]octane-7-carbonyl}cyclopropan-1-ol] stands under 500 nM; under `Cc1nc(-c2cccc(-c3ccc(C(=O)N4CCN(C(=O)C5(O)CC5)CC4)cc3)c2)no1` [1-(4-{4-[3-(5-methyl-1,2,4-oxadiazol-3-yl)phenyl]benzoyl}piperazine-1-carbonyl)cyclopropan-1-ol], under 500 nM. The same measure, in the same setting: under `Cn1ncc2ccc(-c3ccc(C(=O)N4CCN(C(=O)C5(O)CC5)CC4)c(Cl)c3)cc21` [1-{4-[2-chloro-4-(1-methyl-1H-indazol-6-yl)benzoyl]piperazine-1-carbonyl}cyclopropan-1-ol] stands under 500 nM; under `O=C(c1ccc(-c2ccc3ccnn3c2)cc1)N1CCN(C(=O)C2(O)CC2)CC1` [1-[4-(4-{pyrazolo[1,5-a]pyridin-6-yl}benzoyl)piperazine-1-carbonyl]cyclopropan-1-ol], under 500 nM. `O=C(c1ccc(-c2cccc3ocnc23)cc1)N1CCN(C(=O)C2(O)CC2)CC1` [1-[(4-{[4-(1,3-benzoxazol-4-yl)phenyl]carbonyl}piperazin-1-yl)carbonyl]cyclopropan-1-ol] came in with an IC50 of under 500 nM.

Regarding `CCOC(=O)Nc1cccc(-c2ccc(C(=O)N3CCN(C(=O)C4(O)CC4)CC3)cc2)c1` [ethyl N-(3-{4-[4-(1-hydroxycyclopropanecarbonyl)piperazine-1-carbonyl]phenyl}phenyl)carbamate], the IC50 was under 500 nM. Still for that read-out and setting: under `C[C@@H]1CN(C(=O)c2ccc(-c3ccc(Cl)cc3F)cc2)C[C@H](C)N1C(=O)C1(O)CC1` [1-[(2S,6R)-4-[4-(4-chloro-2-fluorophenyl)benzoyl]-2,6-dimethylpiperazine-1-carbonyl]cyclopropan-1-ol] stands under 500 nM.

Staying with this assay, now noted: FASN enzymatic assay; Table 2-2.
As for `O=C(c1ccc(-c2ccc3nc(C(F)(F)F)cn3c2)cc1)N1CCN(C(=O)C2(O)CC2)CC1` [1-{[4-({4-[2-(trifluoromethyl)imidazo[1,2-a]pyridin-6-yl]phenyl}carbonyl)piperazin-1-yl]carbonyl}cyclopropan-1-ol], the IC50 was 500 to 5000 nM.

With `O=C(c1ccc(-c2cccc(C(F)(F)F)c2F)cc1)N1CCN(C(=O)C2(O)CC2)CC1` [1-{[4-({4-[2-fluoro-3-(trifluoromethyl)phenyl]phenyl}carbonyl)piperazin-1-yl]carbonyl}cyclopropan-1-ol], the IC50 lay within 500 to 5000 nM.

The assay is the same for the next values; noted with them: FASN enzymatic assay; Table 2-3.
In turn, `Cn1ncc2cccc(-c3ccc(C(=O)N4CCN(C(=O)C5(O)CC5)CC4)cc3)c21` [1-[(4-{[4-(1-methyl-1H-indazol-7-yl)phenyl]carbonyl}piperazin-1-yl)carbonyl]cyclopropan-1-ol] registered a concentration for half-maximal inhibition (IC50) of at least 5000 nM. Take `O=C(c1cccc(Oc2ccccc2)c1)N1CCN(C(=O)C2(O)CC2)CC1` [1-({4-[(3-phenoxyphenyl)carbonyl]piperazin-1-yl}carbonyl)cyclopropan-1-ol]: the IC50 is at least 5000 nM.

`C[C@@H]1CN(C(=O)C2(O)CC2)[C@@H](C)CN1C(=O)c1ccc(-c2ccc3cnccc3c2)cc1` returned a half-inhibitory concentration (IC50) of at least 5000 nM.
